According to ChEMBL document CHEMBL1201862, “PubChem BioAssay data set” (2004):
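96-well plates; 48 h exposure; 5 concentrations. Endpoints by linear interpolation between flanking doses. Not reached: highest tested concentration assigned. Here, GI50 denotes the concentration required for 50% inhibition of growth.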 Calls of active or inactive are those of the source. Rule as the data show it: active = GI50 up to about 1.1 µM and inactive = higher.

Tests used:
Experiment in all cases: NCI anticancer screen, dose series, 48 h
OVCAR-5 = tested on: OVCAR-5
MCF7 = tested on: MCF7
RXF 393 = tested on: RXF 393
SNB-75 = tested on: SNB-75
SF-539 = tested on: SF-539
TK-10 = tested on: TK-10
HT-29 = tested on: HT-29
SF-268 = tested on: SF-268
RPMI-8226 = tested on: RPMI-8226
SR = tested on: SR
A549 = tested on: A549
CCRF-CEM = tested on: CCRF-CEM
LOX IMVI = tested on: LOX IMVI
UO-31 = tested on: UO-31
SK-OV-3 = tested on: SK-OV-3
KM12 = tested on: KM12
DU-145 = tested on: DU-145
Hs-578T = tested on: Hs-578T
Malme-3M = tested on: Malme-3M
NCI-H460 = tested on: NCI-H460

Measured: GI50

c1cncc(C2(c3cc4ccccc4[nH]3)COCO2)c1 (stereo not given)
inactive: OVCAR-5 > 100 µM | MCF7 > 100 µM | RXF 393 > 100 µM | SNB-75 > 100 µM | SF-539 > 100 µM | TK-10 > 100 µM | HT-29 > 100 µM | SF-268 > 100 µM | RPMI-8226 > 100 µM | SR > 100 µM | A549 94.2 µM | CCRF-CEM 10.5 µM | LOX IMVI > 100 µM | UO-31 58.3 µM | SK-OV-3 > 100 µM | KM12 > 100 µM | DU-145 > 100 µM | Hs-578T > 100 µM | Malme-3M > 100 µM | NCI-H460 > 100 µM

CCOC(=O)c1cnc2oc(/C=N/N3CC(CN4CCOCC4)OC3=O)cc2c1O (stereo not given)
inactive: OVCAR-5 > 100 µM | MCF7 > 100 µM | RXF 393 > 100 µM | SNB-75 > 100 µM | SF-539 > 100 µM | TK-10 > 100 µM | HT-29 > 100 µM | SF-268 > 100 µM | RPMI-8226 > 100 µM | SR > 100 µM | A549 > 100 µM | CCRF-CEM > 100 µM | LOX IMVI > 100 µM | UO-31 > 100 µM | SK-OV-3 > 100 µM | KM12 > 100 µM | DU-145 > 100 µM | Hs-578T > 100 µM | Malme-3M > 100 µM | NCI-H460 > 100 µM

COc1ccc2nc(NC(=O)/C(C#N)=C/c3ccccc3)sc2c1
inactive: OVCAR-5 > 100 µM | MCF7 36.2 µM | RXF 393 > 61.4 µM | SNB-75 > 45.7 µM | SF-539 27.7 µM | TK-10 26.4 µM | HT-29 46.7 µM | SF-268 > 56.5 µM | RPMI-8226 23.4 µM | SR 4.43 µM | A549 59.4 µM | CCRF-CEM 14.1 µM | LOX IMVI 39.4 µM | UO-31 36.8 µM | SK-OV-3 > 70.6 µM | KM12 > 41.7 µM | DU-145 > 52.6 µM | Hs-578T > 48.5 µM | Malme-3M > 49 µM | NCI-H460 38 µM

N#Cc1nc(CCC(C(=O)O)N2C(=O)c3ccccc3C2=O)oc1N (stereo not given)
inactive: OVCAR-5 > 100 µM | MCF7 > 100 µM | RXF 393 > 100 µM | SNB-75 > 100 µM | SF-539 > 100 µM | TK-10 > 100 µM | HT-29 > 100 µM | SF-268 > 100 µM | RPMI-8226 > 100 µM | SR > 100 µM | A549 41.7 µM | CCRF-CEM > 100 µM | LOX IMVI > 10 µM | UO-31 > 100 µM | SK-OV-3 > 100 µM | KM12 > 100 µM | DU-145 > 100 µM | Hs-578T > 100 µM | Malme-3M > 100 µM | NCI-H460 > 100 µM

O=C1C2=C(c3ccccc31)C(c1ccccc1)N1C(=O)CSC1=N2 (stereo not given)
inactive: OVCAR-5 > 85.5 µM | MCF7 33.8 µM | RXF 393 25.6 µM | SNB-75 23.3 µM | SF-539 > 53.7 µM | TK-10 > 75.3 µM | HT-29 43.4 µM | SF-268 58.1 µM | RPMI-8226 56.9 µM | SR 26.4 µM | A549 67.1 µM | CCRF-CEM 48.4 µM | LOX IMVI 37.3 µM | UO-31 34.8 µM | SK-OV-3 > 70.6 µM | KM12 > 53.6 µM | DU-145 52.4 µM | Hs-578T 35.6 µM | Malme-3M 71.9 µM | NCI-H460 > 57.1 µM

CC#CC(O)(C(=O)OCCCN(C)C)C1CCCCC1 (stereo not given)
inactive: OVCAR-5 > 100 µM | MCF7 > 100 µM | RXF 393 > 100 µM | SNB-75 > 100 µM | SF-539 > 100 µM | TK-10 > 100 µM | HT-29 > 100 µM | SF-268 > 100 µM | RPMI-8226 > 100 µM | SR > 100 µM | A549 > 100 µM | CCRF-CEM > 100 µM | LOX IMVI > 100 µM | UO-31 > 100 µM | SK-OV-3 > 100 µM | KM12 > 100 µM | DU-145 > 100 µM | Hs-578T > 100 µM | Malme-3M > 100 µM | NCI-H460 > 100 µM

Cc1ccnc2nc(-c3ccc(Cl)cc3)cc(O)c12
inactive: OVCAR-5 > 100 µM | MCF7 2.94 µM | RXF 393 8.45 µM | SNB-75 2.17 µM | SF-539 5.74 µM | TK-10 > 60.5 µM | HT-29 3.23 µM | SF-268 28.4 µM | RPMI-8226 2.94 µM | SR 1.41 µM | A549 9.08 µM | CCRF-CEM 4.63 µM | LOX IMVI 4.13 µM | UO-31 13.1 µM | SK-OV-3 3.86 µM | KM12 3.16 µM | DU-145 13.5 µM | Hs-578T 3.9 µM | Malme-3M 6.81 µM | NCI-H460 3.85 µM
